Entries after “also recorded” stand apart in the source; their conditions may differ.
Assays:
[1] = test system: MDA-MB435-To.1 human Taxol-resistant breast adenocarcinoma cells; experiment: MDA-MB435-To.1 Taxol-resistant breast adenocarcinoma, fat pad, SCID mice (2.5); format: in vivo, human cells in mice
Experimental: BxPC-3 is a gemcitabine resistant call line. […] Gemcitabine was administered intravenously every three days at a dose of 100 mg/kg. Antitumour activities were estimated by the inhibition of tumour volume, which was measured with caliper. Each point represents mean tumour volume calculated from 10 animals per experimental group. […] Hela S3 is a hydroxyurea resistant cell line. […] Hydroxyurea was administered intraperitoneally every day at a dose of 250 mg/kg for 10 days. Cisplatin was administered intravenously once a week for three weeks at a dose of 4 mg/kg. Antitumour activities were estimated by the inhibition of tumour volume, which was measured with caliper. Each point represents mean tumour volume calculated from 10 animals per experimental group. […] Cisplatin was administered intravenously once a week for three weeks at a dose of 4 mg/kg. Taxol was administered intravenously once a week for three weeks at a dose of 10 mg/kg. Antitumour activities were estimated by the inhibition of tumour volume, which was measured with caliper. Each point represents mean tumour volume calculated from 10 animals per experimental group. […] Taxol was administered i.p. once a week at a dose of 10 mg/kg. Antitumour activities were estimated by the inhibition of tumour volume (FIG. 12A), which was measured with calipers. Each point represents mean tumour volume calculated from 10 animals per experimental group. Animals were sacrificed and tumour weights taken at the end of the study (FIG. 12C). […] Cisplatin was administered intravenously once a week for four weeks at a dose of 4 mg/kg. Taxol was administered intravenously once a week for four weeks at a dose of 20 mg/kg. Antitumour activities were estimated by the inhibition of tumour volume, which was measured with caliper. Each point represents mean tumour volume calculated from 9-10 animals per experimental group. […] Cisplatin was administered intravenously once a week for four weeks at a dose of 4 mg/kg. Antitumour activities were estimated by the inhibition of tumour volume, which was measured with caliper. Each point represents mean tumour volume calculated from 10 animals per experimental group. At the end of the study the animals were sacrificed and tumours weighed. […] Taxol was administered i.p. once a week at a dose of 10 mg/kg. Anti-tumour activity was estimated by the inhibition of tumour volume, which was measured with caliper. Each point represents mean tumour volume calculated from 10 animals per experimental group. In addition animals were sacrificed and tumour weights taken at the end of the study. […] CPT-11 was administered i.p. for 5 days at a dose of 20 mg/kg/day. Antitumour activities were estimated by the inhibition of tumour volume, which was measured with caliper. Each point represents mean tumour volume calculated from 10 animals per experimental group. Tumour weights were measured after animals were sacrificed at the end of the treatment. These cells are not resistant to CPT-11 which was used as a positive control.

[2] = test system: C8161 human metastatic melanoma cells; experiment: Experimental metastasis assay, C8161 cells, treatment post tumour cell injection; format: in vivo, human cells in mice; conditions: C8161 cells i.v. into SCID mice; treatment initiated after 2 days; lungs 5-7 weeks later
Experimental: C8161 human melanoma cells were seeded into 100 mm tissue culture dishes at a density of 2×10^6 and incubated overnight at 37° C. in α-MEM medium supplemented with 10% FBS. The cells were trypsinized, collected by centrifugation and aliquots were removed from the suspension to determine the cell viability using trypan blue exclusion test. […] Treatment was initiated after 2 days. Estimates of the number of lung nodules were made 5-7 weeks later, after excised lungs from individual mice were stained with picric acid dye solution (75% picric acid, 20% formaldehyde, 5% glacial acetic acid).
Murine R3 fibrosarcoma and human C8161 melanoma cells injected into the tail vein of mice form observable lung nodules 2 weeks post-injection. […] To more accurately reflect the clinical situation, mice were treated with SEQ ID NO:1 post tumour cell injection. C8161 human metastatic melanoma cells were seeded into 100 mm tissue culture dishes at a density of 2×10^6 and incubated overnight at 37° C. in α-MEM medium supplemented with 10% FBS. The cells were trypsinized, collected by centrifugation and aliquots were removed from the suspension to determine the cell viability using trypan blue exclusion test. Approximately 1×10^5 cells suspended in 0.1 ml of PBS were injected into the tail veins of 6-8 week old female SCID mice. Treatment was initiated after 2 days. Estimates of the number of lung nodules were made 5-7 weeks later, after excised lungs from individual mice were stained with picric acid dye solution (75% picric acid, 20% formaldehyde, 5% glacial acetic acid). The results are shown in FIG. 31, bars represent the mean number of nodules per mouse with standard error.

For “5′-GGCTAAATCGCTCCACCAAG-3′ (all phosphorothioate, sugars by position and methylation of C not given here) [SEQ ID NO: 1, fully phosphorothioated antisense oligonucleotide that hybridizes to the coding region of R2 mRNA]”, the “Tumour weight as % of saline control” value ([1]; MDA-MB435-To.1 (breast), Taxol resistant, SCID, SEQ ID NO:1 10 mg/kg i.v. every other day 15 times, Taxol 20 mg/kg, Cisplatin 4 mg/kg i.v. weekly x4) was 42%, the “Antitumour effect (FIG. 13)” value ([1]; MDA-MB435-To.1 Taxol-resistant, SCID mice, SEQ ID NO:1 10 mg/kg i.v. every other day, Cisplatin 4 mg/kg, Taxol 20 mg/kg i.v. weekly) was “significant reduction of tumour weight compared to saline control; also recorded: superior to the inhibitory effects observed with Cisplatin” and the “Lung nodule formation / anti-metastatic activity (FIG. 31)” value [2] was “only one of the 9 mice had lung nodules”.

From patent US7968526B2, “Antisense oligonucleotides directed to ribonucleotide reductase R2 and uses thereof in the treatment of cancer” (Lorus Therapeutics Inc., priority 2003, dated 2011)
